11 compounds from publication PMC10065276, “Enhanced therapeutic window for antimicrobial Pept-ins by investigating their structure-activity relationship” (PLOS ONE, 2023) can be followed below.

The assay has as its system E. coli BL21. To be noted: BL21, 17 h. The protocol: The peptide MIC was determined via the broth microdilution assay according to the EUCAST guideline, using 96-well polystyrene flat-bottom microtiter plates (BD Biosciences). Briefly, a single colony was inoculated in 5 mL Mueller-Hinton (MH) medium and incubated, while shaking at 37°C, to the end-exponential growth phase. The bacterial culture was subsequently diluted to 0.005 McFarland (McF) (~1.5x10^6 CFU/mL) with fresh MH medium. Two-fold serial peptide-dilutions were prepared in 50 μL MH medium resulting in a concentration range of 0.75 to 100 μg/mL (at least three wells for each concentration). Afterwards, 50 μL of the freshly diluted bacterial suspension (0.005 McF) was mixed with different peptide concentrations in the 96-well plate, performed in triplicates. The plate was ultimately incubated at 37°C overnight without shaking for 17 hours. The MIC was determined as the lowest peptide concentration without visible bacterial growth.

Residues, ends and D or L forms follow the SMILES beside them.

Turning to `CC[C@H](C)[C@H](NC(=O)[C@H](C)NC(=O)[C@H](CCCNC(=N)N)NC(=O)[C@@H](NC(=O)[C@H](CC(C)C)NC(=O)[C@H](C)NC(=O)[C@H](CC(C)C)NC(=O)CNC(=O)[C@H](CC(C)C)NC(=O)CNC(=O)[C@@H](N)CCCNC(=N)N)C(C)C)C(=O)N[C@@H](CCCNC(=N)N)C(=O)NCC(=O)N[C@@H](CC(C)C)C(=O)NCC(=O)N[C@@H](CC(C)C)C(=O)N[C@@H](C)C(=O)N[C@@H](CC(C)C)C(=O)N[C@H](C(=O)N[C@@H](C)C(=O)N[C@@H](CCCNC(=N)N)C(=O)O)C(C)C` [Peptide P2_4R_I] (H-RGLGLALVRAIRGLGLALVAR-OH), the “BL21 MIC” value came out at 12.50 µg/mL.

Take `CSCC[C@H](NC(=O)[C@H](C)NC(=O)[C@H](CCCNC(=N)N)NC(=O)[C@@H](NC(=O)[C@H](CC(C)C)NC(=O)[C@H](C)NC(=O)[C@H](CC(C)C)NC(=O)CNC(=O)[C@H](CC(C)C)NC(=O)CNC(=O)[C@@H](N)CCCNC(=N)N)C(C)C)C(=O)N[C@@H](CCCNC(=N)N)C(=O)NCC(=O)N[C@@H](CC(C)C)C(=O)NCC(=O)N[C@@H](CC(C)C)C(=O)N[C@@H](C)C(=O)N[C@@H](CC(C)C)C(=O)N[C@H](C(=O)N[C@@H](C)C(=O)N[C@@H](CCCNC(=N)N)C(=O)O)C(C)C` [Peptide P2_4R_M] (H-RGLGLALVRAMRGLGLALVAR-OH): the “BL21 MIC” value worked out at 12.50 µg/mL.

For the compound `CC(C)C[C@H](NC(=O)CNC(=O)[C@H](CCCNC(=N)N)NC(=O)[C@H](CCCNC(=N)N)NC(=O)[C@H](C)NC(=O)[C@H](CCCNC(=N)N)NC(=O)[C@@H](NC(=O)[C@H](CC(C)C)NC(=O)[C@H](C)NC(=O)[C@H](CC(C)C)NC(=O)CNC(=O)[C@H](CC(C)C)NC(=O)CNC(=O)[C@@H](N)CCCNC(=N)N)C(C)C)C(=O)NCC(=O)N[C@@H](CC(C)C)C(=O)N[C@@H](C)C(=O)N[C@@H](CC(C)C)C(=O)N[C@H](C(=O)N[C@@H](C)C(=O)N[C@@H](CCCNC(=N)N)C(=O)O)C(C)C` [Peptide P2_4R_R] (H-RGLGLALVRARRGLGLALVAR-OH), the “BL21 MIC” value is 12.50 µg/mL.

Turning to `CC(C)C[C@H](NC(=O)CNC(=O)[C@H](CCCNC(=N)N)NC(=O)[C@@H](NC(=O)[C@H](C)NC(=O)[C@H](CCCNC(=N)N)NC(=O)[C@@H](NC(=O)[C@H](CC(C)C)NC(=O)[C@H](C)NC(=O)[C@H](CC(C)C)NC(=O)CNC(=O)[C@H](CC(C)C)NC(=O)CNC(=O)[C@@H](N)CCCNC(=N)N)C(C)C)C(C)C)C(=O)NCC(=O)N[C@@H](CC(C)C)C(=O)N[C@@H](C)C(=O)N[C@@H](CC(C)C)C(=O)N[C@H](C(=O)N[C@@H](C)C(=O)N[C@@H](CCCNC(=N)N)C(=O)O)C(C)C` [Peptide P2_4R_V] (H-RGLGLALVRAVRGLGLALVAR-OH), the “BL21 MIC” value came out at 12.50 µg/mL.

`CC(C)C[C@H](NC(=O)CNC(=O)[C@H](CCCNC(=N)N)NC(=O)[C@H](Cc1c[nH]c2ccccc12)NC(=O)[C@H](C)NC(=O)[C@H](CCCNC(=N)N)NC(=O)[C@@H](NC(=O)[C@H](CC(C)C)NC(=O)[C@H](C)NC(=O)[C@H](CC(C)C)NC(=O)CNC(=O)[C@H](CC(C)C)NC(=O)CNC(=O)[C@@H](N)CCCNC(=N)N)C(C)C)C(=O)NCC(=O)N[C@@H](CC(C)C)C(=O)N[C@@H](C)C(=O)N[C@@H](CC(C)C)C(=O)N[C@H](C(=O)N[C@@H](C)C(=O)N[C@@H](CCCNC(=N)N)C(=O)O)C(C)C` [Peptide P2_4R_W] (H-RGLGLALVRAWRGLGLALVAR-OH): the “BL21 MIC” value is 12.50 µg/mL.

As for `CC(C)C[C@H](NC(=O)CNC(=O)[C@H](CCCNC(=N)N)NC(=O)[C@@H]1CCCN1C(=O)[C@H](CCCNC(=N)N)NC(=O)[C@H](CCCNC(=N)N)NC(=O)[C@@H](NC(=O)[C@H](CC(C)C)NC(=O)[C@H](C)NC(=O)[C@H](CC(C)C)NC(=O)CNC(=O)[C@H](CC(C)C)NC(=O)CNC(=O)[C@@H](N)CCCNC(=N)N)C(C)C)C(=O)NCC(=O)N[C@@H](CC(C)C)C(=O)N[C@@H](Cc1ccccc1)C(=O)N[C@@H](CC(C)C)C(=O)N[C@H](C(=O)N[C@@H](CCCNC(=N)N)C(=O)N[C@@H](CCCNC(=N)N)C(=O)O)C(C)C` [Peptide P2_A5F] (H-RGLGLALVRRPRGLGLFLVRR-OH), the “BL21 MIC” value amounted to 3.13 µg/mL.

Take `CC[C@H](C)[C@H](NC(=O)[C@H](CC(C)C)NC(=O)CNC(=O)[C@H](CC(C)C)NC(=O)CNC(=O)[C@H](CCCNC(=N)N)NC(=O)[C@@H]1CCCN1C(=O)[C@H](CCCNC(=N)N)NC(=O)[C@H](CCCNC(=N)N)NC(=O)[C@@H](NC(=O)[C@H](CC(C)C)NC(=O)[C@H](C)NC(=O)[C@H](CC(C)C)NC(=O)CNC(=O)[C@H](CC(C)C)NC(=O)CNC(=O)[C@@H](N)CCCNC(=N)N)C(C)C)C(=O)N[C@@H](CC(C)C)C(=O)N[C@H](C(=O)N[C@@H](CCCNC(=N)N)C(=O)N[C@@H](CCCNC(=N)N)C(=O)O)C(C)C` [Peptide P2_A5I] (H-RGLGLALVRRPRGLGLILVRR-OH): the “BL21 MIC” value amounted to 12.50 µg/mL.

In the case of `CC(C)C[C@H](NC(=O)CNC(=O)[C@H](CCCNC(=N)N)NC(=O)[C@@H]1CCCN1C(=O)[C@H](CCCNC(=N)N)NC(=O)[C@H](CCCNC(=N)N)NC(=O)[C@@H](NC(=O)[C@H](CC(C)C)NC(=O)[C@H](C)NC(=O)[C@H](CC(C)C)NC(=O)CNC(=O)[C@H](CC(C)C)NC(=O)CNC(=O)[C@@H](N)CCCNC(=N)N)C(C)C)C(=O)NCC(=O)N[C@@H](CC(C)C)C(=O)N[C@@H](CC(C)C)C(=O)N[C@@H](CC(C)C)C(=O)N[C@H](C(=O)N[C@@H](CCCNC(=N)N)C(=O)N[C@@H](CCCNC(=N)N)C(=O)O)C(C)C` [Peptide P2_A5L] (H-RGLGLALVRRPRGLGLLLVRR-OH), the “BL21 MIC” value worked out at 6.25 µg/mL.

Turning to `CSCC[C@H](NC(=O)[C@H](CC(C)C)NC(=O)CNC(=O)[C@H](CC(C)C)NC(=O)CNC(=O)[C@H](CCCNC(=N)N)NC(=O)[C@@H]1CCCN1C(=O)[C@H](CCCNC(=N)N)NC(=O)[C@H](CCCNC(=N)N)NC(=O)[C@@H](NC(=O)[C@H](CC(C)C)NC(=O)[C@H](C)NC(=O)[C@H](CC(C)C)NC(=O)CNC(=O)[C@H](CC(C)C)NC(=O)CNC(=O)[C@@H](N)CCCNC(=N)N)C(C)C)C(=O)N[C@@H](CC(C)C)C(=O)N[C@H](C(=O)N[C@@H](CCCNC(=N)N)C(=O)N[C@@H](CCCNC(=N)N)C(=O)O)C(C)C` [Peptide P2_A5M] (H-RGLGLALVRRPRGLGLMLVRR-OH), the “BL21 MIC” value worked out at 6.25 µg/mL.

On to `CC(C)C[C@H](NC(=O)CNC(=O)[C@H](CCCNC(=N)N)NC(=O)[C@@H]1CCCN1C(=O)[C@H](CCCNC(=N)N)NC(=O)[C@H](CCCNC(=N)N)NC(=O)[C@@H](NC(=O)[C@H](CC(C)C)NC(=O)[C@H](C)NC(=O)[C@H](CC(C)C)NC(=O)CNC(=O)[C@H](CC(C)C)NC(=O)CNC(=O)[C@@H](N)CCCNC(=N)N)C(C)C)C(=O)NCC(=O)N[C@@H](CC(C)C)C(=O)N[C@@H](Cc1c[nH]c2ccccc12)C(=O)N[C@@H](CC(C)C)C(=O)N[C@H](C(=O)N[C@@H](CCCNC(=N)N)C(=O)N[C@@H](CCCNC(=N)N)C(=O)O)C(C)C` [Peptide P2_A5W] (H-RGLGLALVRRPRGLGLWLVRR-OH), for which the “BL21 MIC” value was 6.25 µg/mL.

Regarding `CC(C)C[C@H](NC(=O)CNC(=O)[C@H](CCCNC(=N)N)NC(=O)[C@@H]1CCCN1C(=O)[C@H](CCCNC(=N)N)NC(=O)[C@H](CCCNC(=N)N)NC(=O)[C@@H](NC(=O)[C@H](CC(C)C)NC(=O)[C@H](C)NC(=O)[C@H](CC(C)C)NC(=O)CNC(=O)[C@H](CC(C)C)NC(=O)CNC(=O)[C@@H](N)CCCNC(=N)N)C(C)C)C(=O)NCC(=O)N[C@@H](CC(C)C)C(=O)N[C@@H](Cc1ccc(O)cc1)C(=O)N[C@@H](CC(C)C)C(=O)N[C@H](C(=O)N[C@@H](CCCNC(=N)N)C(=O)N[C@@H](CCCNC(=N)N)C(=O)O)C(C)C` [Peptide P2_A5Y] (H-RGLGLALVRRPRGLGLYLVRR-OH), the “BL21 MIC” value was determined as 6.25 µg/mL.
